Key:
Format in all cases: in vivo
[1] = tested on: adult flies Musca domestica strain WHO-N; assay: Musca domestica test (MUSCDO surface treatment & contact assay); settings: 24 hours after contact, read-out: efficacy (mortality); for mortality at 20 mg/m2: surface concentration 20 mg/m^2, exposure 30 minutes; for mortality at 4 mg/m2: surface concentration 4 mg/m^2, exposure 30 minutes
Procedure, shortened: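 Compound dissolved at 2 mg/ml in acetone with 2000 ppm RME, applied to glazed tile and dried; adult flies exposed on the surface for 30 min. Percent mortality scored 24 h after contact.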

[2] = tested on: adult cat fleas (Ctenocephalides felis); assay: Ctenocephalides felis in-vitro contact test, adult cat flea; settings: application rate 5 μg/cm^2 (=500 g/ha), after 48 hours, read-out: activity (efficacy: fleas dead or moribund)
Procedure, shortened: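 Acetone solutions of compound were coated onto inner walls of glass tubes (900 ppm giving 5 μg/cm^2) and dried; 5-10 adult C. felis were then held 48 h at room temperature. Efficacy = % fleas dead or moribund, judged by inability to escape a 45-50° C heating plate within 5 min.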

[3] = tested on: green peach aphid (Myzus persicae); assay: Myzus persicae spray test; settings: foliar, 120 h, after 5 days, Chinese cabbage leaf disks; for mortality at 100 g/ha: application rate 100 g/ha, read-out: activity (mortality)
Procedure, shortened: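 Chinese cabbage leaf disks infested with all aphid instars were sprayed with compound diluted in water containing emulsifier (1000 ppm). Mortality (%) was scored after 5 days, 100% meaning all aphids killed.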

[4] = tested on: adult mosquitoes Aedes aegypti strain MONHEIM; assay: Aedes aegypti test (AEDSAE surface treatment & contact assay); settings: 24 hours after contact, read-out: efficacy (mortality); for mortality at 4 mg/m2: surface concentration 4 mg/m^2, exposure 30 minutes; for mortality at 20 mg/m2: surface concentration 20 mg/m^2, exposure 30 minutes
Procedure, shortened: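 Compound in acetone (2 mg/ml) with 2000 ppm RME dried onto glazed tile; adults exposed to the treated surface for 30 min. Percent mortality scored 24 h after contact.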

[5] = tested on: two spotted spidermite (Tetranychus urticae); assay: Tetranychus urticae spray test OP-resistant; settings: foliar, 144 h, application rate 100 g/ha, after 6 days, French bean leaf disks
Procedure: Tetranychus urticae—Spray Test OP-Resistant
To produce a suitable preparation of active compound, 1 part by weight of active compound is mixed with the stated amount of solvents and is diluted with water, containing an emulsifier concentration of 1000 ppm, to the desired concentration. Further test concentrations are prepared by dilution with emulsifier containing water.
French bean (Phaseolus vulgaris) leaf disks infected with all instars of the two spotted spidermite (Tetranychus urticae) are sprayed with a preparation of the active ingredient of the desired concentration.
After 6 days mortality in % is determined. 100% means all spider mites have been killed and 0% means none of the spider mites have been killed.

[6] = tested on: brown planthopper (Nilaparvata lugens); assay: Nilaparvata lugens spray test; settings: 96 h, after 4 days, rice plants; for mortality at 100 g/ha: application rate 100 g/ha; for mortality at 500 g/ha: application rate 500 g/ha
Procedure, shortened: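 Rice plants sprayed with compound diluted in water containing 1000 ppm emulsifier, then infested with brown planthopper. Mortality (%) scored after 4 days, 100% meaning all insects killed.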

[7] = tested on: adult mosquitoes Anopheles funestus strain FUMOZ-R; assay: Anopheles funestus test (ANPHFU surface treatment & contact assay); settings: 24 hours after contact, read-out: efficacy (mortality); for mortality at 20 mg/m2: surface concentration 20 mg/m^2, exposure 30 minutes; for mortality at 4 mg/m2: surface concentration 4 mg/m^2, exposure 30 minutes
Procedure: Anopheles funestus Test (ANPHFU Surface Treatment & Contact Assay)
(§1) Solvent: Aceton+2000 ppm rapeseed oil methyl ester (RME)
(§2) In order to produce a sufficient, active ingredient containing solution it is necessary to solve the test compound in the solvent-mix (acetone at 2 mg/ml/RME 2000 ppm). This solution is pipetted onto a glazed tile and after evaporation of the acetone, adult mosquitoes of the species Anopheles funestus strain FUMOZ-R (Hunt et al., Med. Vet. Entomol. 2005 September; 19(3): 271-275) are placed onto the dried surface. The exposure time is 30 minutes.
(§3) Mortality in percent (%) is determined 24 hours after contact of the insects to the treated surface. 100% mortality means that all tested insects are dead, whereas 0% means that no insect died.

[8] = tested on: cattle ticks (Rhipicephalus microplus) strain Parkhurst, SP-resistant; assay: Rhipicephalus (Boophilus) microplus dip test; settings: 168 h, application rate 100 ppm, egg deposition after 7 days, read-out: activity (efficacy: infertile eggs)
Procedure: Rhipicephalus (Boophilus) microplus—Dip Test
Test animal: cattle ticks (Rhipicephalus microplus) strain Parkhurst, SP-resistant
Solvent: dimethyl sulfoxide
To produce a suitable preparation of active compound, 10 mg of active compound are dissolved in 0.5 mL solvent, and the concentrate is diluted with water to the desired concentration.
This compound solution is pipetted into tubes. 8-10 engorged, adult, female cattle ticks (Rhipicephalus microplus) are placed in perforated tubes. These tubes are immersed in the aqueous compound solution until the ticks are completely moistened. After the liquid has drained off, the ticks are transferred to a filter paper in a plastic tray and stored in a climate chamber.
After 7 days egg deposition of fertile eggs is monitored. Eggs where fertility is not visible are stored in a climate chamber till hatching after about 42 days. An efficacy of 100% means all eggs are infertile; 0% means all eggs are fertile.

[9] = tested on: adult mosquitoes Culex quinquefasciatus strain P00; assay: Culex quinquefasciatus test (CULXFA surface treatment & contact assay); settings: 24 hours after contact, read-out: efficacy (mortality); for mortality at 20 mg/m2: surface concentration 20 mg/m^2, exposure 30 minutes; for mortality at 4 mg/m2: surface concentration 4 mg/m^2, exposure 30 minutes
Procedure: Culex quinquefasciatus Test (CULXFA Surface Treatment & Contact Assay)
as §1
as §2, with “2 000” for “2000”, “Culex quinquefasciatus” for “Anopheles funestus”, “P00” for “FUMOZ-R (Hunt et al., Med. Vet. Entomol. 2005 September; 19(3): 271-275)”
as §3

SMILES | mortality at 20 mg/m2 [1] | pest or weed control at 5 µg/cm2 [2] | mortality at 100 g/ha [3] | mortality at 4 mg/m2 [4] | mortality at 20 mg/m2 [4] | mortality at 100 g/ha [5] | mortality at 100 g/ha [6] | mortality at 20 mg/m2 [7] | mortality at 4 mg/m2 [1] | pest or weed control at 100 ppm [8] | mortality at 500 g/ha ([3]; application rate 500 g/ha) | mortality at 500 g/ha [6] | mortality at 20 mg/m2 [9] | mortality at 4 mg/m2 [7] | mortality at 4 mg/m2 [9]
C[C@H](NC(=O)c1cc(C(F)(F)F)cc(C(F)(F)F)c1)c1ncnn1-c1ccc(C(=O)N2CCCC2)cn1 [Example I-11] | 80 to 100% | 100% | 90% | 80 to 100% | 80 to 100% | 100% |  |  |  |  |  |  |  |  | 
C[C@H](NC(=O)c1cc(Cl)cc(C(F)(F)F)c1)c1ncnn1-c1ccc(C(=O)N2CCS(=O)(=O)CC2)cn1 [Example I-35] |  | 100% | 90% | 80 to 100% | 80 to 100% |  | 100% | 80 to 100% |  |  |  |  |  |  | 
C[C@@H]1CN(C(=O)c2ccc(-n3ncnc3[C@H](C)NC(=O)c3cc(OC(F)(F)F)cc(C4CC4)c3)nc2)C[C@H](C)O1 [Example I-114] | 80 to 100% | 100% | 100% |  | 80 to 100% |  |  |  | 80 to 100% | 100% |  |  |  |  | 
C[C@H](NC(=O)c1cc(C(F)(F)F)cc(C(F)(F)F)c1)c1ncnn1-c1ccc(C(=O)N2CCOCC2)cn1 [Example I-2] | 80 to 100% | 100% | 100% | 80 to 100% | 80 to 100% | 90% | 90% | 80 to 100% | 80 to 100% | 100% | 100% | 100% |  |  | 
C[C@@H]1CN(C(=O)c2ccc(-n3ncnc3[C@H](C)NC(=O)c3cc(C(F)(F)F)cc(C(F)(F)F)c3)nc2)CCO1 [Example I-69] | 80 to 100% | 100% | 90% |  | 80 to 100% |  |  | 80 to 100% | 80 to 100% |  |  |  | 80 to 100% | 80 to 100% | 
C[C@@H]1CN(C(=O)c2ccc(-n3ncnc3[C@H](C)NC(=O)c3cc(Cl)cc(C(F)(F)F)c3)nc2)C[C@H](C)O1 [Example I-31] | 80 to 100% | 100% | 100% | 80 to 100% | 80 to 100% |  |  |  |  |  |  |  |  |  | 
Cc1nc([C@H](C)NC(=O)c2cc(C(F)(F)F)cc(C(F)(F)F)c2)n(-c2ncc(C(=O)N3CCOCC3)s2)n1 [Example I-4] |  | 80% | 90% |  | 80 to 100% |  |  |  | 80 to 100% |  |  |  |  |  | 
COC1CN(C(=O)c2ccc(-n3ncnc3[C@H](C)NC(=O)c3cc(C(F)(F)F)cc(C(F)(F)F)c3)nc2)C1 [Example I-15] | 80 to 100% | 100% | 90% |  | 80 to 100% |  |  |  |  | 100% |  |  |  |  | 
C[C@@H]1CN(C(=O)c2ccc(-n3ncnc3[C@H](C)NC(=O)c3cc(C(F)(F)F)cc(C(F)(F)F)c3)nc2)C[C@H](C)O1 [Example I-50] | 80 to 100% | 100% | 90% | 80 to 100% | 80 to 100% |  | 90% | 80 to 100% | 80 to 100% | 100% |  |  | 80 to 100% | 80 to 100% | 
C[C@@H]1CN(C(=O)c2ccc(-n3ncnc3[C@H](C)NC(=O)c3cc(C(F)(F)F)cc(C(F)(F)F)c3)nc2)C[C@@H](C)O1 [Example I-46] | 80 to 100% | 100% | 90% |  | 80 to 100% |  |  |  |  | 100% |  |  |  |  | 
C[C@H](NC(=O)c1cc(Cl)cc(C(F)(F)F)c1)c1ncnn1-c1ccc(C(=O)N2CCSCC2)cn1 [Example I-36] | 80 to 100% | 100% | 100% | 80 to 100% | 80 to 100% |  | 100% | 80 to 100% | 80 to 100% |  |  |  |  | 80 to 100% | 
Cc1nc([C@H](C)NC(=O)c2cc(C(F)(F)F)cc(C(F)(F)F)c2)n(-c2ccc(C(=O)N3C[C@@H](C)O[C@@H](C)C3)cn2)n1 [Example I-45] | 80 to 100% | 100% | 100% |  | 80 to 100% |  |  |  | 80 to 100% | 80% |  |  |  |  | 
COC1CCCN(C(=O)c2ccc(-n3ncnc3[C@H](C)NC(=O)c3cc(C(F)(F)F)cc(C(F)(F)F)c3)nc2)C1 (stereo partly shown) [Example I-8] | 80 to 100% | 100% | 90% |  | 80 to 100% |  | 90% |  |  | 80% |  |  |  |  | 
Cc1nc([C@H](C)NC(=O)c2cc(C(F)(F)F)cc(C(F)(F)F)c2)n(-c2ccc(C(=O)N3CCS(=O)(=O)CC3)cn2)n1 [Example I-76] | 80 to 100% | 100% | 90% | 80 to 100% | 80 to 100% |  |  | 80 to 100% | 80 to 100% |  |  | 100% | 80 to 100% | 80 to 100% | 80 to 100%
C[C@H](NC(=O)c1cc(C(F)(F)F)cc(C(F)(F)F)c1)c1ncnn1-c1ccc(C(=O)N2CCS(=O)(=O)CC2)cn1 [Example I-75] | 80 to 100% | 100% | 100% | 80 to 100% | 80 to 100% |  |  | 80 to 100% | 80 to 100% |  |  | 100% | 80 to 100% | 80 to 100% | 80 to 100%
C[C@H](NC(=O)c1cc(C(F)(F)F)cc(C(F)(F)F)c1)c1ncnn1-c1ccc(C(=O)N2C[C@H](C)O[C@@H](C)C2)cn1 [Example I-94] | 80 to 100% | 100% | 100% | 80 to 100% | 80 to 100% |  | 90% |  | 80 to 100% | 100% |  |  |  |  | 
Cc1nc([C@H](C)NC(=O)c2cc(Cl)cc(C(F)(F)F)c2)n(-c2ccc(C(=O)N3CC(C)OC(C)C3)cn2)n1 (stereo partly shown) [Example I-29] | 80 to 100% | 100% | 90% | 80 to 100% | 80 to 100% |  |  |  |  |  |  |  |  |  | 

— US20230058623A1, “NOVEL HETEROARYL-TRIAZOLE COMPOUNDS AS PESTICIDES” (Bayer Aktiengesellschaft, priority 2019, published 2023)
